Converted amounts (≈) assume the structure as drawn.
Key:
[1] = system: PC-3; assay: Growth inhibition of human PC3 cells by MTT assay; assay type: functional, cell-based
[2] = system: Aspergillus clavatus; assay: Antifungal activity against Aspergillus clavatus after overnight incubation by agar well diffusion method; assay type: functional
[3] = system: Candida albicans; assay: Antifungal activity against Candida albicans after overnight incubation by agar well diffusion method; assay type: functional
[4] = system: Helicobacter pylori; assay: Antimicrobial activity against Helicobacter pylori clinical isolate 1 after 7 days by two-fold agar dilution method; assay type: functional; details: clinical isolate 1, 168 h
[5] = system: Helicobacter pylori; assay: Antimicrobial activity against Helicobacter pylori clinical isolate 2 after 7 days by two-fold agar dilution method; assay type: functional; details: clinical isolate 2, 168 h
[6] = system: Pseudomonas aeruginosa; assay: Antimicrobial activity against Pseudomonas aeruginosa ATCC 43288 incubated for 18 to 24 hrs by microbroth dilution method; assay type: functional
[7] = system: Staphylococcus aureus; assay: Antimicrobial activity against Staphylococcus aureus ATCC 25923 incubated for 18 to 24 hrs by microbroth dilution method; assay type: functional
[8] = system: Enterococcus faecalis; assay: Antimicrobial activity against Enterococcus faecalis ATCC 29212 incubated for 18 to 24 hrs by microbroth dilution method; assay type: functional
[9] = system: Bacillus cereus; assay: Antimicrobial activity against Bacillus cereus 709 Roma incubated for 18 to 24 hrs by microbroth dilution method; assay type: functional
[10] = system: Mycolicibacterium smegmatis; assay: Antimicrobial activity against Mycobacterium smegmatis ATCC 607 incubated for 48 to 72 hrs by microbroth dilution method; assay type: functional
[11] = system: Staphylococcus aureus; assay: Antimicrobial activity against methicillin-susceptible Staphylococcus aureus ATCC 29213 incubated for 16 hrs by CLSI method; assay type: functional; details: ATCC 29213, 16 h
[12] = system: Staphylococcus aureus; assay: Antimicrobial activity against healthcare-acquired methicillin-resistant Staphylococcus aureus NRS70 incubated for 16 hrs by CLSI method; assay type: functional; details: NRS70, 16 h
[13] = system: Pseudomonas aeruginosa; assay: Antimicrobial activity against Pseudomonas aeruginosa ATCC 27853 incubated for 18 to 24 hrs by disk diffusion method; assay type: functional
[14] = system: Escherichia coli; assay: Antimicrobial activity against Escherichia coli ATCC 25922 incubated for 18 to 24 hrs by disk diffusion method; assay type: functional
[15] = system: Staphylococcus aureus; assay: Antimicrobial activity against Staphylococcus aureus ATCC 25923 incubated for 18 to 24 hrs by disk diffusion method; assay type: functional
[16] = system: Bacillus subtilis; assay: Antimicrobial activity against Bacillus subtilis 10B incubated for 18 to 24 hrs by disk diffusion method; assay type: functional

COc1ccc(OC)c(/C=N\NC(=O)c2cn(C3CC3)c3c(OC)c(N4CCN(C)CC4)c(F)cc3c2=O)c1
IC50 [1]: 3 µg/mL (≈ 5.58 µM)
inhibition zone (IZ) [2]: 8 mm
inhibition zone (IZ) [3]: 10 mm

COc1cc(/C=N\NC(=O)c2cn(C3CC3)c3c(OC)c(N4CCN(C)CC4)c(F)cc3c2=O)ccc1O
IC50 [1]: 14.8 µg/mL (≈ 28.3 µM)
inhibition zone (IZ) [2]: 12 mm
inhibition zone (IZ) [3]: 10 mm

Nc1c(Nc2ccc(F)cc2)c(F)cc2c(=O)c(C(=O)O)cn(C3CC3)c12
MIC [4]: 2.5 µg/mL (≈ 6.73 µM)
MIC [5]: 5 µg/mL (≈ 13.5 µM)

CCn1cc(C(=O)O)c(=O)c2cc(F)c(N3CCN(Cn4nc(CN5CCN(c6ccc([N+](=O)[O-])cc6)CC5)n(Cc5ccccc5)c4=S)CC3)cc21
MIC [6]: 0.06 to 0.48 µg/mL (≈ 0.0809 to 0.647 µM)
MIC [7]: 0.12 to 0.24 µg/mL (≈ 0.162 to 0.324 µM)
MIC [8]: 0.122 to 0.488 µg/mL (≈ 0.164 to 0.658 µM)
MIC [9]: 0.12 to 0.48 µg/mL (≈ 0.162 to 0.647 µM)
MIC [10]: 0.244 µg/mL (≈ 0.329 µM)

COc1c(F)c(F)cc2c(=O)c(C(=O)N3CCSC3)cn(C3CC3)c12
MIC90 [11]: > 201 µg/mL
MIC90 [12]: > 201 µg/mL

O=C(O)c1cn(C2CC2)c2c(cc(F)c3c2nnn3-c2ccc(Cl)cc2)c1=O
MIC [4]: 5 µg/mL (≈ 12.5 µM)
MIC [5]: 2.5 µg/mL (≈ 6.27 µM)

COc1c(N2CCN(C)CC2)c(F)cc2c(=O)c(C(=O)N/N=C\c3ccc([N+](=O)[O-])cc3)cn(C3CC3)c12
IC50 [1]: 15 µg/mL (≈ 28.7 µM)
inhibition zone (IZ) [2]: 8 mm
inhibition zone (IZ) [3]: 10 mm

COc1c(N2CCN(C)CC2)c(F)cc2c(=O)c(C(=O)N/N=C\c3cccc(N(C)C)c3)cn(C3CC3)c12
inhibition zone (IZ) [2]: 10 mm
inhibition zone (IZ) [3]: 8 mm

Cc1ccc(Nc2c(F)cc3c(=O)c(C(=O)O)cn(C4CC4)c3c2N)cc1
MIC [4]: 5 µg/mL (≈ 13.6 µM)
MIC [5]: 2.5 µg/mL (≈ 6.8 µM)

Nc1c(Nc2ccccc2)c(F)cc2c(=O)c(C(=O)O)cn(C3CC3)c12
MIC [4]: 0.6 µg/mL (≈ 1.7 µM)
MIC [5]: 1.3 µg/mL (≈ 3.68 µM)

COc1c(N2CCN(C)CC2)c(F)cc2c(=O)c(C(=O)N/N=C\c3ccc(O)cc3)cn(C3CC3)c12
IC50 [1]: 14.4 µg/mL (≈ 29.2 µM)
inhibition zone (IZ) [2]: 12 mm
inhibition zone (IZ) [3]: 9 mm

COc1c(N2CC3=CCCCC3C2)c(F)cc2c(=O)c(C(=O)N3CCSC3)cn(C3CC3)c12 (configuration not stated)
MIC90 [11]: 6.3 µg/mL (≈ 13.4 µM)
MIC90 [12]: 6.3 µg/mL (≈ 13.4 µM)

COc1c(N2CC3CCCCC3C2)c(F)cc2c(=O)c(C(=O)Nc3nccs3)cn(C3CC3)c12 (configuration not stated)
MIC90 [11]: > 201 µg/mL
MIC90 [12]: > 201 µg/mL

COc1c(N2CC3CCCCC3C2)c(F)cc2c(=O)c(C(=O)N3CCSC3)cn(C3CC3)c12 (configuration not stated)
MIC90 [11]: 0.79 µg/mL (≈ 1.68 µM)
MIC90 [12]: 0.79 µg/mL (≈ 1.68 µM)

O=C(O)c1cn(C2CC2)c2c(cc(F)c3nn(CN(N4CCCC4)N4CCCC4)c(=O)n32)c1=O
MIC [4]: 2.5 µg/mL (≈ 5.3 µM)
MIC [5]: 0.6 µg/mL (≈ 1.27 µM)

CCn1cc(C(=O)O)c(=O)c2cc(F)c(NNc3c[nH]c(=O)[nH]c3=O)c(F)c21
MIC [13]: > 500 µg/mL
MIC [14]: 170 µg/mL (≈ 432 µM)
MIC [15]: 195 µg/mL (≈ 496 µM)
MIC [16]: > 500 µg/mL

CCn1cc(C(=O)O)c(=O)c2cc(F)c(F)cc21
MIC [13]: 138 µg/mL (≈ 547 µM)
MIC [14]: 24.6 µg/mL (≈ 97.3 µM)
MIC [15]: 369 µg/mL (≈ 1460 µM)
MIC [16]: 29.6 µg/mL (≈ 117 µM)

Nc1c(Nc2ccc(Cl)cc2)c(F)cc2c(=O)c(C(=O)O)cn(C3CC3)c12
MIC [4]: 5 µg/mL (≈ 12.9 µM)
MIC [5]: 2.5 µg/mL (≈ 6.45 µM)

COc1ccc(Nc2c(F)cc3c(=O)c(C(=O)O)cn(C4CC4)c3c2N)cc1
MIC [4]: 2.5 µg/mL (≈ 6.52 µM)
MIC [5]: 5 µg/mL (≈ 13 µM)

CCn1cc(C(=O)O)c(=O)c2cc(F)c(N3CCN(C(C)=O)CC3)cc21 [4-N-ACETYL-1-PIPERAZINYL-NORFLOXACIN]
MIC [13]: > 500 µg/mL
MIC [14]: 0.012 µg/mL (≈ 0.0332 µM)
MIC [15]: 10.7 µg/mL (≈ 29.7 µM)
MIC [16]: 0.805 µg/mL (≈ 2.23 µM)

CCn1cc(C(=O)O)c(=O)c2cc(F)c(Nn3c(=O)[nH]cc(F)c3=O)c(F)c21
MIC [13]: > 500 µg/mL
MIC [14]: 120 µg/mL (≈ 303 µM)
MIC [15]: 390 µg/mL (≈ 984 µM)
MIC [16]: > 500 µg/mL

COc1ccc(-n2nnc3c4c(cc(F)c32)c(=O)c(C(=O)O)cn4C2CC2)cc1
MIC [4]: 2.5 µg/mL (≈ 6.34 µM)
MIC [5]: 1.3 µg/mL (≈ 3.3 µM)

COc1c(N2CCN(C)CC2)c(F)cc2c(=O)c(C(=O)N/N=C\c3cccc([N+](=O)[O-])c3)cn(C3CC3)c12
inhibition zone (IZ) [2]: 10 mm
inhibition zone (IZ) [3]: 12 mm

Cc1ccc(-n2nnc3c4c(cc(F)c32)c(=O)c(C(=O)O)cn4C2CC2)cc1
MIC [4]: 5 µg/mL (≈ 13.2 µM)
MIC [5]: 1.3 µg/mL (≈ 3.44 µM)

CCn1cc(C(=O)O)c(=O)c2cc(F)c(NNc3ncccn3)c(F)c21
MIC [13]: > 500 µg/mL
MIC [14]: 120 µg/mL (≈ 332 µM)
MIC [15]: 150 µg/mL (≈ 415 µM)
MIC [16]: > 500 µg/mL

— ChEMBL document CHEMBL4602605, “Fluoroquinolones structural and medicinal developments (2013-2018): Where are we now?” (Bioorg Med Chem, 2019)
